Experimental data taken from US20120053200A1, “BACE 2 INHIBITORS” (priority 2010, published 2012).

What follows are compounds tested against T1, BACE2 (Rattus norvegicus, UniProt Q6IE75) (assay: Assay for BACE inhibition by measuring cellular TMEM27 cleavage (INS-TMEM27 cells, ELISA of shed TMEM27)). Details: inhibition of human TMEM27 cleavage by endogenous cellular BACE2 in INS1e-derived INS-TMEM27 rat cell line; ELISA of shed TMEM27 in supernatant.
T1 construct: endogenous cellular BACE2 in the Ins1e rat cell line; endogenous in cells; host or cells: INS-TMEM27 (INS1e-derived rat beta-cell line with doxycycline-inducible full-length hTMEM27)
T1 sequence (Q6IE75 63-514): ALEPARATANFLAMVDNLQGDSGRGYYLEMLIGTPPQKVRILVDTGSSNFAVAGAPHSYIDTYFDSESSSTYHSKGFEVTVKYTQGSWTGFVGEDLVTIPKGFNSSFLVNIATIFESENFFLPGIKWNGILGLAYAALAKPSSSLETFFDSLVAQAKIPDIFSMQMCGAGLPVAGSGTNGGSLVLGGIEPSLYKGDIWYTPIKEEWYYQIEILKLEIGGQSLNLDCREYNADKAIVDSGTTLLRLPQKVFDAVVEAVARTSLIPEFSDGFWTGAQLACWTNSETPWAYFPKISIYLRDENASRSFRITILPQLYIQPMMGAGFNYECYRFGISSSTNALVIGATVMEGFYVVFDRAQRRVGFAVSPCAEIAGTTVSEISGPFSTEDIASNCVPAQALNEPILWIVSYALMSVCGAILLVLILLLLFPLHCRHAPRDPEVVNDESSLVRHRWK
Format: cell-based
Outline: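 Rat INS1e-derived cells with doxycycline-inducible full-length human TMEM27, cleaved by endogenous BACE2. After 2 days' culture, inhibitor added; 2 h later, doxycycline to 500 ng/ml final, then 46 h at 37 °C. Shed TMEM27 in medium quantified by sandwich ELISA; IC50 from curve fit.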

| IC50 [nM] | Structure (SMILES) |
| --- | --- |
| 51 | O=C(N[C@@H](Cc1ccccc1)[C@H](O)CNCc1cccc(C(F)(F)F)c1)c1cccc(C(=O)N2CCC[C@H]2Cc2ccccc2)c1 [Example 65, N-[(1S,2R)-1-Benzyl-2-hydroxy-3-(3-trifluoromethyl-benzylamino)-propyl]-3-((S)-2-benzyl-pyrrolidine-1-carbonyl)-benzamide] |
| 115 | COc1ccc(C2CCCN2C(=O)c2cccc(C(=O)N[C@@H](Cc3ccccc3)[C@H](O)CNCc3cccc(C(F)(F)F)c3)c2)cc1 (stereo partly drawn) [Example 56, N-[(1S,2R)-1-Benzyl-2-hydroxy-3-(3-trifluoromethyl-benzylamino)-propyl]-3-[2-(4-methoxy-phenyl)-pyrrolidine-1-carbonyl]-benzamide] |
| 764 | CCc1ccc(C2CCCN2C(=O)c2cccc(C(=O)N[C@@H](Cc3ccccc3)[C@H](O)CNCc3cccc(C(F)(F)F)c3)c2)cc1 (stereo partly drawn) [Example 62, N-[(1S,2R)-1-Benzyl-2-hydroxy-3-(3-trifluoromethyl-benzylamino)-propyl]-3-[2-(4-ethyl-phenyl)-pyrrolidine-1-carbonyl]-benzamide] |

Second part, the compound before the results:

| Structure (SMILES) | IC50 [nM] |
| --- | --- |
| Cc1csc([C@H]2CCCN2C(=O)c2cc(C(=O)N[C@@H](Cc3ccccc3)[C@H](O)CNCc3cccc(C(F)(F)F)c3)cc(N(C)S(C)(=O)=O)c2)n1 [Example 48, N-[(1S,2R)-1-Benzyl-2-hydroxy-3-(3-trifluoromethyl-benzylamino)-propyl]-3-(methanesulfonyl-methyl-amino)-5-[(R)-2-(4-methyl-thiazol-2-yl)-pyrrolidine-1-carbonyl]-benzamide] | 81 |
| Cc1csc([C@H]2CCCN2C(=O)c2cc(C(=O)N[C@@H](Cc3ccccc3)[C@H](O)CNCc3cccc(OC(F)(F)F)c3)cc(N(C)S(C)(=O)=O)c2)n1 [Example 41, N-[(1S,2R)-1-Benzyl-2-hydroxy-3-(3-trifluoromethoxy-benzylamino)-propyl]-3-(methanesulfonyl-methyl-amino)-5-[(R)-2-(4-methyl-thiazol-2-yl)-pyrrolidine-1-carbonyl]-benzamide] | 0.1 |
| O=C(N[C@@H](Cc1ccccc1)[C@H](O)CNCc1cccc(C(F)(F)F)c1)c1cccc(C(=O)N2CCCC2C2CCCC2)c1 (stereo partly drawn) [Example 72, N-[(1S,2R)-1-Benzyl-2-hydroxy-3-(3-trifluoromethyl-benzylamino)-propyl]-3-(2-cyclopentyl-pyrrolidine-1-carbonyl)-benzamide] | 66 |
| CN(c1cc(C(=O)N[C@@H](Cc2ccccc2)[C@H](O)CNCc2cccc(C(F)(F)F)c2)cc(C(=O)N2CCCC2c2cccs2)c1)S(C)(=O)=O (stereo partly drawn) [Example 53, N-[(1S,2R)-1-Benzyl-2-hydroxy-3-(3-trifluoromethyl-benzylamino)-propyl]-3-(methanesulfonyl-methyl-amino)-5-(2-thiophen-2-yl-pyrrolidine-1-carbonyl)-benzamide] | 29 |
| O=C(N[C@@H](Cc1ccccc1)[C@H](O)CNCc1cccc(OC(F)(F)F)c1)c1cccc(C(=O)N2CCC(c3ccccn3)C2)c1 (stereo partly drawn) [Example 9, N-[(1S,2R)-1-Benzyl-2-hydroxy-3-(3-trifluoromethoxy-benzylamino)-propyl]-3-(3-pyridin-2-yl-pyrrolidine-1-carbonyl)-benzamide] | 263 |
